Assay [1] deals with T1, PrpC (2-methylcitrate synthase, Rv1131) (Mycobacterium tuberculosis, UniProt I6Y9Q3).
T1 construct: full-length, C-terminal 6x-His tag
In words: biochemical.

Assay [2] concerns the target HsaAB (HsaA, of the two-component flavin-dependent hydroxylase) (Mycobacterium tuberculosis, UniProt P9WJA1). As to the kind of experiment: biochemical.

SMILES strings stand for the structures.

Consider three compounds from article PMC4335503, “Novel Inhibitors of Cholesterol Degradation in Mycobacterium tuberculosis Reveal How the Bacterium’s Metabolism Is Constrained by the Intracellular Environment” (PLoS Pathogens, 2015).

Sequence of HsaAB (HsaA, of the two-component flavin-dependent hydroxylase) (P9WND9 whole entry): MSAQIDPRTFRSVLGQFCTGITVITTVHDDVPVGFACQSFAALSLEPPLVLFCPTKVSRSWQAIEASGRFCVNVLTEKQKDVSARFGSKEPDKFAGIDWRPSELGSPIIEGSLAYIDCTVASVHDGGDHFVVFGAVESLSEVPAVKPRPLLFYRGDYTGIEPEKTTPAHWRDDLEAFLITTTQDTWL
Sequence of HsaAB (HsaA, of the two-component flavin-dependent hydroxylase) (P9WJA1 whole entry): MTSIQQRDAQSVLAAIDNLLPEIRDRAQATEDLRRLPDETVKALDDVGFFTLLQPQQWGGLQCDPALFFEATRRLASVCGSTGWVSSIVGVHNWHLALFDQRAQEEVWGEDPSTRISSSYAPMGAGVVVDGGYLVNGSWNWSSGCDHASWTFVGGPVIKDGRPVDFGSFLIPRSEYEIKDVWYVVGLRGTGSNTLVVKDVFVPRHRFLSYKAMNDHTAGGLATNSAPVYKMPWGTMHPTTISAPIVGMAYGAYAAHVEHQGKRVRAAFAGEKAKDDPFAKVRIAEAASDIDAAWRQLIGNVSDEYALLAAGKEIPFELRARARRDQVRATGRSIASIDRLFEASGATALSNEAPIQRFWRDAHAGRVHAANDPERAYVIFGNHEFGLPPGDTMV
T1 sequence (I6Y9Q3 whole entry): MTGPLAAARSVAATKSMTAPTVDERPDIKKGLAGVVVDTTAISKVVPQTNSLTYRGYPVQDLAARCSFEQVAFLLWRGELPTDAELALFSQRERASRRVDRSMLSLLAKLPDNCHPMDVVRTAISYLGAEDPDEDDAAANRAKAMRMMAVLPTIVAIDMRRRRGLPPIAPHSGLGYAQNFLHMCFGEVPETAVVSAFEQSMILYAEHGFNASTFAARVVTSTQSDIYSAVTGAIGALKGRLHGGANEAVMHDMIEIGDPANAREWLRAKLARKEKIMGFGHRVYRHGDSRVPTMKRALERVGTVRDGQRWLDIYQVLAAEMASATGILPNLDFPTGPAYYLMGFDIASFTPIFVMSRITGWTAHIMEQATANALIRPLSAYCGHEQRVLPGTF

Regarding `Cc1nnc(NS(=O)(=O)c2ccc(NC(=O)c3cc(-c4ccc(Cl)cc4)oc3C(F)(F)F)cc2)s1` [V-13–009920, 5-(4-chlorophenyl)-N-(4-(N-(5-methyl-1,3,4-thiadiazol-2-yl)sulfamoyl)phenyl)-2-(trifluoromethyl)furan-3-carboxamide], in assay [1], the IC50 amounted to 4 ± 1.1 µM.

As to `Cc1noc(C)c1C(=O)Nc1nnc(-c2ccccc2)s1` [V-13–011503, 3,5-dimethyl-N-(5-phenyl-1,3,4-thiadiazol-2-yl)-1,2-oxazole-4-carboxamide], half-maximal inhibition in assay [2] (IC50) was put at 11 ± 2 µM.

In the case of `Cc1cc(=O)n2[nH]c(-c3ccc(F)cc3)nc2n1` [V-13–012725, 2-(4-fluorophenyl)-5-methyl-1H-[1,2, 4]triazolo[1,5-a]pyrimidin-7-one], half-maximal inhibition in assay [2] (IC50) required 5 ± 0.8 µM.
